In assay [1] the test system is acetic acid-induced abdominal constrictions in mice. The experiment in a line: Acetic acid induced abdominal constriction (writhing) test. In kind it is in vivo. How it is done: (§1) Experiments in mice were performed on C57BL/6 male mice (Janvier, Le-Genest-St-Isle, France) weighting 26-35 g, housed in individual cages with food and water ad libitum and kept in a 12 hours/12 hours light-dark cycle. All animal experimentations were carried out in accordance with the rules of the European Committee Council Directive of Nov. 24, 1986 (86/609/EEC) and all procedures were approved by the local department of the veterinarian services for the use and care of animals (agreement #380612). All efforts were made to minimize animal suffering and reduce the number of animals used in each series of experiments.
One hour after oral administration of these substances, each animal was injected i.p. with 0.6% acetic acid in a volume of 10 ml/kg body weight. After acetic acid injection, the number of stretching or writhing responses per animal was recorded during 30 min after a latency period of 5 min. Inhibition was expressed in percentage.
Data were analyzed by two-way Anova followed by Tukey's (HSD) multi-comparison test.
(Writhing tests count abdominal constrictions after an irritant is injected.)

Another assay concerns formalin-induced pain. As to the kind of experiment: Formaline-induced nociception (formalin test). It counts as in vivo, mice. To be noted: 32 mg/kg p.o. How it is done:
as §1
The formalin test was carried out as described by Hunskaar and Hole (1987) with slight modifications. The negative control was treated with 0.9% NaCl. […] Other groups of mice were treated with methanolic fractions of Nauclea Latifolia (16, 40 or 80 mg/kg, p.o.), or purified tramadol isolated from Nauclea Latifolia (8, 16 and 32 mg/kg, p.o.). Pain was induced by injecting 50 μl of 2.5% formalin (40% formaldehyde in distilled water) in the right hind paw pad. […] The amount of time spent licking and biting the injected paw was indicative of pain and was recorded during the first 0-5 min (first phase), followed by the 15-30 min period (second phase). Data were analyzed by two-way Anova followed by Tukey's (HSD) multi-comparison test.

For assay [2], the system named is hotplate-induced pain in mice. The experiment in a line: Hotplate test. It counts as in vivo. How it is done: as §1
The apparatus consisted of a water bath in which was placed a metallic cylinder (14 cm diameter×10 cm height). The hot plate was maintained at 55±0.5° C. Each mouse (six per group) acted as its own control. One hour before treatment, the reaction time of each mouse (liking of the forepaws or jumping response) was measured twice with a 10 min interval. The average of the two readings was obtained as the initial reaction time.
(§2) The protection percentage was calculated as the ratio (reaction time following tramadol administration−initial reaction time): initial reaction time.

The subject of assay [3] is tail flick response in mice after immersion in 55° C. water bath. As to the kind of experiment: Tail-flick test. In kind it is in vivo. The procedure: as §1
The tail-flick test was carried out according to the method described by D'Amour and Smith. This involved immersing extreme 3 cm of the mice's tail in water bath containing water at a temperature of 55±0.5° C. […] The reaction time was recorded with a stopwatch. […] The reaction time of mice was taken at intervals of 15, 30 and 60 min after a latency period of 1 hour following the administration of the decoction and drugs.
as §2
For orientation: Thermal pain tests record how soon the animal reacts.

For assay [4], the system named is glutamate-induced nociception in mice. As to the kind of experiment: Glutamate-induced nociception. It counts as in vivo. The procedure: as §1
Animals were treated with the purified tramadol isolated from Nauclea Latifolia (8, 16 or 32 mg/kg, p.o.), dipyrone (60 mg/kg, p.o.) or 0.9% NaCl (p.o.) 1 hour before test. A volume of 20 μl of glutamate (30 μmol/paw) was injected intraplantarly in the ventral surface of the right hind paw. Animals were observed individually for 15 min following glutamate injection. The amount of time they spent licking the injected paw was recorded with a chronometer and was considered as indicative of nociception. Data were analyzed by two-way Anova followed by Tukey's (HSD) multi-comparison test.

Molecules are shown by their SMILES. Marks after values point to notes of the source that are not given here.

Turning to `COc1cccc([C@]2(O)CCCC[C@H]2CN(C)C)c1` (racemic) [F27 of N. latifolia, (±)-cis-2-dimethylaminomethyl-1-(3-methoxyphenyl)cyclohexanol], the “counter effect of naloxone on acetic acid-induced writhing” value in assay [1] (FIG. 4) is “absence of counter effect of naloxone”. The “bioactivity of HPLC fractions in the writhing test” value in assay [1] (HPLC fractions of root bark extract, writhing test) is listed as “peak of activity”. The “mean ID50 (95% confidence limits), acetic acid-induced abdominal constrictions” value in assay [1] (oral administration) is 14.13 (5.53-41.88) mg/kg. The “blockade of pain emanating from inflammation, second phase (15-30 min) of formalin test” value in the assay with formalin-induced pain is recorded as 31.74%. In the assay on formalin-induced pain, the “neurogenic-induced pain blockade, first phase (0-5 min) of formalin test” value is 64.07%. Besides, the “Protection against thermal nociception (%)” value is −2.2% in assay [2] (8 mg/kg p.o., 0.5 hr); 22.9% in assay [2] (8 mg/kg p.o., 1 hr); 20.2* % in assay [2] (8 mg/kg p.o., 2 hrs); 50.6** % in assay [2] (8 mg/kg p.o., 3 hrs); 4.6% in assay [2] (8 mg/kg p.o., 4 hrs); −0.2% in assay [2] (8 mg/kg p.o., 5 hrs). Also, the “Protection against thermal nociception (%)” value in assay [2] (8 mg/kg p.o., 6 hrs) is given as −0.5%; in assay [2] (16 mg/kg p.o., 0.5 hr), 1.9%; in assay [2] (16 mg/kg p.o., 1 hr) it was 27.0* %; in assay [2] (16 mg/kg p.o., 2 hrs), 21.3* %; in assay [2] (16 mg/kg p.o., 3 hrs), 52.4** %; in assay [2] (16 mg/kg p.o., 4 hrs) it was 6.5%. Further, the “Protection against thermal nociception (%)” value in assay [2] (16 mg/kg p.o., 5 hrs) is on record as −2.0%; in assay [2] (16 mg/kg p.o., 6 hrs), 4.6%; in assay [2] (32 mg/kg p.o., 0.5 hr) it was 1.9%; in assay [2] (32 mg/kg p.o., 1 hr) it was 45.2** %; in assay [2] (32 mg/kg p.o., 2 hrs), 50.9** %; in assay [2] (32 mg/kg p.o., 3 hrs), 71.9*** %. For the same molecule, the “Protection against thermal nociception (%)” value was 25.2* % in assay [2] (32 mg/kg p.o., 4 hrs); 21.3* % in assay [2] (32 mg/kg p.o., 5 hrs); 27.8* % in assay [2] (32 mg/kg p.o., 6 hrs). Moreover, in assay [2] (32 mg/kg, oral administration), the “time at which increase in latency response reached maximal level” value turned out to be 3 h. Besides, in assay [2] (mouse, in vivo), the “effect of naloxone on antinociceptive effect in hot plate assay” value was “Naloxone antagonized antinociceptive effect”. Besides, the “Protection agains thermal nociception (%)” value in assay [3] (8 mg/kg p.o., 15 min) is recorded as 7.7%; in assay [3] (8 mg/kg p.o., 30 min), 14.4* %; in assay [3] (8 mg/kg p.o., 60 min), 21.4* %; in assay [3] (16 mg/kg p.o., 15 min) it was 5.6%; in assay [3] (16 mg/kg p.o., 30 min), 34.3** %; in assay [3] (16 mg/kg p.o., 60 min), 42.9*** %. Besides, the “Protection agains thermal nociception (%)” value in assay [3] (32 mg/kg p.o., 15 min) is listed as 18.7%; in assay [3] (32 mg/kg p.o., 30 min), 63.0*** %. The “reduction of painful sensation due to tail immersion in warm water” value in assay [3] (32 mg/kg oral, after a latency period of 30 min) was 63.05%. Also, the “dose dependence of reduction of painful sensation in tail immersion” value in assay [3] (mouse, in vivo) is “dose-dependent”. In addition, the “effect of naloxone on analgesic activity in tail-flick test” value in assay [3] (mouse, in vivo) is “blocked by naloxone”. Moreover, the “antinociception in glutamate-induced nociception” value in assay [4] (8, 16 or 32 mg/kg, p.o.) was “marked and dose-related antinociception”. Besides, the “mean ID50 (95% confidence limits), glutamate-induced nociception” value in assay [4] (p.o., 1 hour before test) was 21.17 (6.49-47.23).

For `CC(=O)Oc1ccccc1C(=O)O` [Aspirin, reference compound], the “Acetic acid-induced writhing inhibition (%)” value in assay [1] (150 mg/kg p.o.) was found to be 52.9%. Further, the “Protection against thermal nociception (%)” value in assay [2] (150 mg/kg p.o., 0.5 hr) is 1.7%; in assay [2] (150 mg/kg p.o., 1 hr), 35.5* %; in assay [2] (150 mg/kg p.o., 2 hrs), 2.2* %; in assay [2] (150 mg/kg p.o., 3 hrs), 39.5* %; in assay [2] (150 mg/kg p.o., 4 hrs) it was 8.5%; in assay [2] (150 mg/kg p.o., 5 hrs), 10.6%. In assay [2] (150 mg/kg p.o., 6 hrs), the “Protection against thermal nociception (%)” value is on record as 3.5%. Besides, the “Protection agains thermal nociception (%)” value in assay [3] (150 mg/kg p.o., 15 min) is given as 6.4%; in assay [3] (150 mg/kg p.o., 30 min) it was 9.5%; in assay [3] (150 mg/kg p.o., 60 min), 7.1%.

As to `CN1CC[C@]23c4c5ccc(O)c4O[C@H]2[C@@H](O)C=C[C@H]3[C@H]1C5` [Morphine, reference compound], the “Protection against thermal nociception (%)” value in assay [2] (5 mg/kg s.c., 0.5 hr) is listed as 7.4%; in assay [2] (5 mg/kg s.c., 1 hr) it was 44.4** %; in assay [2] (5 mg/kg s.c., 2 hrs) it was 46.8** %; in assay [2] (5 mg/kg s.c., 3 hrs) it was 40.4** %; in assay [2] (5 mg/kg s.c., 4 hrs), 43.6** %; in assay [2] (5 mg/kg s.c., 5 hrs), 24.6* %. Moreover, the “Protection against thermal nociception (%)” value in assay [2] (5 mg/kg s.c., 6 hrs) turned out to be 17.1%. Besides, the “Protection agains thermal nociception (%)” value is 27.3% in assay [3] (5 mg/kg s.c., 15 min); 62.1*** % in assay [3] (5 mg/kg s.c., 30 min); 77.8*** % in assay [3] (5 mg/kg s.c., 60 min).

As for `Cc1c(N(C)CS(=O)(=O)[O-])c(=O)n(-c2ccccc2)n1C.[Na+]` [dipyrone, reference compound], the “inhibition of glutamate-induced nociception” value in assay [4] (dipyrone (60 mg/kg, p.o.)) is given as 70.30%.

For the origin of these results see patent US20160039742A1, “EXTRACTION OF TRAMADOL FROM NAUCLEA LATIFOLIA SMITH” ([…] FOURIER - GRENOBLE 1, priority 2013, published 2016).
